Some results are limits rather than exact numbers.

In general, IC50 refers to the concentration needed to halve the response being measured. A high value points to a need for much substance.

This experiment concerns Human non-small cell lung cancer NCI-H358. Briefly: Cell proliferation assay (CellTiter-Glu) in NCI-H358. The experiment is classed as cell-based. Particulars: 5 days, NCI-H358 cells, cell viability by CellTiter-Glu, compound 0.3 nM-2 μM, medium and compound renewed after 3 days. On the procedure:
Cell proliferation inhibition screening method was established by CellTier-Glu® test reagent from Promega.
Human non-small cell lung cancer NCI-H358 was cultured by RPMI-1640 (Gibco®) medium with 10% fetal bovine serum (Gibco®) at 37° C., 95% air and 5% CO2, in 25 cm^2 or 75 cm^2 plastic culture bottle ((Nunc®) and passaged 2-3 times a week.
The cells were seeded on the 96 well cell culture plate (Nunc®) at the density of 2*10^3/well, 90 μL/well, and cultured at 37° C., 95% air and 5% CO2. The compound to be tested was added 24 hours later: the compound was diluted 3 times with DMSO from the concentration of 2 mM compound (dissolved in DMSO). […] 10 μL of the compound diluted by culture medium was added into the culture plate seeded with cells. The final concentration of DMSO in cell culture medium was 0.1%, and the final concentration of test compound was 0.3 nM-2 μM. The cells were incubated at 37° C. for 3 days. The culture medium was substituted with 90 μL/well fresh complete medium. According to the above diluting method of compounds, the compound to be tested was added.
After 5 days, cell viability was tested by CellTiter-Glu (Promega) kit, and finally, the semi-inhibitory concentration of compounds on cell proliferation, i.e. IC50 was calculated by Prism program.
Compound `Cc1nc(N2CCC3(CC2)Cc2ccc(NS(C)(=O)=O)cc2[C@H]3N)c(CO)nc1-c1cccc(Cl)c1Cl` [Compound 3, (S)—N-(1-amino-1′-(5-(2,3-dichlorophenyl)-3-(hydroxymethyl)-6-methylpyrazin-2-yl)-1,3-dihydrospiro[indene-2,4′-piperidin]-6-yl) methanesulfonamide] gave an IC50 of 273 nM.
As for `Cc1nc(N2CCC3(CC2)Cc2ccc(C(C)(C)O)cc2[C@H]3N)c(CO)nc1-c1cccc(Cl)c1Cl` [Compound 4, (S)-2-(1-amino-1′-(5-(2,3-dichlorophenyl)-3-(hydroxymethyl)-6-methylpyrazin-2-yl)-1,3-dihydrospiro[indene-2,4′-piperidin]-6-yl)propan-2-01], the figure is 817 nM.
As to `Cc1nc(N2CCC3(CC2)Cc2ccc(C(N)=O)cc2[C@H]3N)c(CO)nc1-c1cccc(Cl)c1Cl` [Compound 5, (S)-1-amino-1′-(5-(2,3-dichlorophenyl)-3-(hydroxymethyl)-6-methylpyrazin-2-yl)-1,3-dihydrospiro[indene-2,4′-piperidine]-6-carboxamide], the 50% inhibitory concentration (IC50) was 98 nM.
As for `Cc1nc(N2CCC3(CC2)Cc2ccccc2[C@H]3N)c(C(N)=O)nc1-c1cccc(Cl)c1Cl` [Compound 6, (S)-3-(1-amino-1,3-dihydrospiro[indene-2,4′-piperidin]-1′-yl)-6-(2,3-dichlorophenyl)-5-methylpyrazine-2-carboxamide], the figure is more than 1000 nM.
Next, `Cc1nc(N2CCC3(CC2)Cc2ccccc2[C@H]3N)c(C#N)nc1-c1cccc(Cl)c1Cl` [Compound 7, (S)-3-(1-amino-1,3-dihydrospiro[indene-2,4′-piperidin]-1′-yl)-6-(2,3-dichlorophenyl)-5-methylpyrazine-2-carbonitrile]: more than 1000 nM; `Cc1nc(N2CCC3(CC2)Cc2cccc(C#N)c2[C@H]3N)c(CO)nc1-c1cccc(Cl)c1Cl` [Compound 8, (S)-1-amino-1′-(5-(2,3-dichlorophenyl)-3-(hydroxymethyl)-6-methylpyrazin-2-yl)-1,3-dihydrospiro[indene-2,4′-piperidine]-7-carbonitrile]: more than 1000 nM.
Next, `Cc1nc(N2CCC3(CC2)Cc2cc(NS(C)(=O)=O)ccc2[C@H]3N)c(CO)nc1-c1cccc(Cl)c1Cl` [Compound 9, (S)—N-(1-amino-1′-(5-(2,3-dichlorophenyl)-3-(hydroxymethyl)-6-methylpyrazin-2-yl)-1,3-dihydrospiro[indene-2,4′-piperidin]-5-yl)methanesulfonamide]: more than 1000 nM.
`Cc1nc(N2CCC3(CC2)Cc2ccccc2[C@H]3N)c(CO)nc1-c1ccnc(N)c1Cl` [Compound 10, (S)-(3-(1-amino-1,3-dihydrospiro[indene-2,4′-piperidin]-1′-yl)-6-(2-amino-3-chloropyridin-4-yl)-5-methylpyrazin-2-yl)methanol] gave an IC50 of more than 1000 nM.
As for `N[C@@H]1c2ccccc2CC12CCN(c1ncc(-c3cccc(Cl)c3Cl)nc1CO)CC2` [Compound 11, (S)-(3-(1-amino-1,3-dihydrospiro[indene-2,4′-piperidin]-1′-yl)-6-(2,3-dichlorophenyl)pyrazin-2-yl)methanol], the figure is 405 nM; as for `Cc1nc(N2CCC3(CC2)Cc2ccccc2[C@H]3N)c(CO)nc1-c1cccnc1C(F)(F)F` [Compound 12, (S)-(3-(1-amino-1,3-dihydrospiro[indene-2,4′-piperidin]-1′-yl)-5-methyl-6-(2-(trifluoromethyl)pyridin-3-yl)pyrazin-2-yl)methanol], more than 1000 nM.
Next, `COc1ccc2c(c1)[C@@H](N)C1(CCN(c3nc(C)c(-c4cccc(Cl)c4Cl)nc3CO)CC1)C2` [Compound 14]: 56 nM.
In the case of `Cc1cccc(-c2nc(CO)c(N3CCC4(CC3)Cc3ccccc3[C@H]4N)nc2C)c1C` [Compound 15], the IC50 was found to be 590 nM.
Take `Cc1nc(N2CCC3(CC2)Cc2ccccc2[C@H]3N)c(CO)nc1-c1ccccc1Br` [Compound 16]: the IC50 stood at 261 nM.
Next, `Cc1nc(N2CCC3(CC2)Cc2ccccc2[C@H]3N)c(CO)nc1-c1ccc2[nH]ncc2c1` [Compound 17]: 464 nM; `Cc1nc(N2CCC3(CC2)Cc2ccccc2[C@H]3N)c(CO)nc1-c1ccc2c(cnn2C)c1` [Compound 18]: 630 nM.
Next, `Cc1nc(N2CCC3(CC2)Cc2ccccc2[C@H]3N)c(CO)nc1-c1ccnc(Cl)c1Cl` [Compound 19]: 29 nM.
As for `Cc1ccc2c(c1)[C@@H](N)C1(CCN(c3nc(C)c(-c4cccc(Cl)c4Cl)nc3CO)CC1)C2` [Compound 20], the figure is 48 nM; as for `Cc1nc(N2CCC3(CC2)Cc2ccccc2[C@H]3N)c(CO)nc1-c1ccc(Cl)c(Cl)c1` [Compound 22], 195 nM.
On to `Cc1nc(N2CCC3(CC2)Cc2ccccc2[C@H]3N)c(CO)nc1-c1ccccc1Cl` [Compound 23], for which the 50% inhibitory concentration (IC50) came to 479 nM.
Next, `Cc1nc(N2CCC3(CC2)Cc2ccccc2[C@@H]3N)c(CO)nc1-c1cccc(Cl)c1Cl` [Compound 24]: more than 1000 nM; `Cc1cccc(-c2nc(CO)c(N3CCC4(CC3)Cc3ccccc3[C@H]4N)nc2C)c1Cl` [Compound 25]: 37 nM; `Cc1nc(N2CCC3(CC2)Cc2ccccc2[C@H]3N)c(CO)nc1-c1cc2ccccc2[nH]1` [Compound 26]: 449 nM.
As for `Cc1nc(N2CCC3(CC2)Cc2cc(C(N)=O)ccc2[C@H]3N)c(CO)nc1-c1cccc(Cl)c1Cl` [Compound 27], the figure is more than 1000 nM; as for `Cc1nc(N2CCC3(CC2)Cc2cccc(Br)c2[C@H]3N)c(CO)nc1-c1cccc(Cl)c1Cl` [Compound 28], more than 1000 nM.
Next, `Cc1nc(N2CCC3(CC2)Cc2ccc(N=S(C)(C)=O)cc2[C@H]3N)c(CO)nc1-c1cccc(Cl)c1Cl` [Compound 29]: 199 nM; `Cc1nc(N2CCC3(CC2)Cc2c(C#N)cccc2[C@H]3N)c(CO)nc1-c1cccc(Cl)c1Cl` [Compound 30]: 207 nM; `Cc1nc(N2CCC3(CC2)Cc2ccc(S(C)(=O)=O)cc2[C@H]3N)c(CO)nc1-c1cccc(Cl)c1Cl` [Compound 31]: 249 nM.
Take `Cc1nc(N2CCC3(CC2)Cc2ccc(Br)cc2[C@H]3N)c(CO)nc1-c1cccc(Cl)c1Cl` [Compound 32]: the IC50 was 29 nM.
`Cc1nc(N2CCC3(CC2)Cc2ccc(Cl)cc2[C@H]3N)c(CO)nc1-c1cccc(Cl)c1Cl` [Compound 33] yielded an IC50 of 17 nM.
Next, `Cc1nc(N2CCC3(CC2)Cc2ccc(C(F)(F)F)cc2[C@H]3N)c(CO)nc1-c1cccc(Cl)c1Cl` [Compound 34]: 90 nM; `Cc1nc(N2CCC3(CC2)Cc2cccnc2[C@H]3N)c(CO)nc1-c1cccc(Cl)c1Cl` [Compound 35]: 101 nM.
Next, `Cc1nc(N2CCC3(CC2)Cc2ccc(OC(F)(F)F)cc2[C@H]3N)c(CO)nc1-c1cccc(Cl)c1Cl` [Compound 36]: 31 nM; `Cc1nc(N2CCC3(CC2)Cc2ccncc2[C@H]3N)c(CO)nc1-c1cccc(Cl)c1Cl` [Compound 37]: 75 nM.
Compound `Cc1nc(N2CCC3(CC2)Cc2cnccc2[C@H]3N)c(CO)nc1-c1cccc(Cl)c1Cl` [Compound 38] had an IC50 of more than 1000 nM.
Next, `Cc1cnc2c(c1)[C@@H](N)C1(CCN(c3nc(C)c(-c4cccc(Cl)c4Cl)nc3CO)CC1)C2` [Compound 39]: 11 nM; `Cc1nc(N2CCC3(CC2)Cc2ncccc2[C@H]3N)c(CO)nc1-c1ccnc(Cl)c1Cl` [Compound 40]: 30 nM; `COc1ccc(-c2nc(CO)c(N3CCC4(CC3)Cc3ccccc3[C@H]4N)nc2C)c(Cl)c1` [Compound 41]: 97 nM.
Compound `Cc1nc(N2CCC3(CC2)Cc2ccccc2[C@H]3N)c(CO)nc1-c1ccc(S(C)(=O)=O)cc1Cl` [Compound 42] had an IC50 of 732 nM.
As for `Cc1nc(N2CCC3(CC2)Cc2ccccc2[C@H]3N)c(CO)nc1-c1cncc(Cl)c1Cl` [Compound 43], the figure is 225 nM; as for `Cc1nc(N2CCC3(CC2)Cc2ccccc2[C@H]3N)c(CO)nc1-c1cncc(Cl)c1` [Compound 44], more than 1000 nM.
As for `Cc1nc(N2CCC3(CC2)Cc2ccccc2[C@H]3N)c(CO)nc1-c1cnc(N)cc1Cl` [Compound 45], the half-inhibitory concentration (IC50) is more than 1000 nM.
As for `COc1ccc(-c2nc(CO)c(N3CCC4(CC3)Cc3ncccc3[C@H]4N)nc2C)c(Cl)c1` [Compound 46], the figure is 379 nM; as for `Cc1ccc2c(c1)[C@H](N)C1(CCN(c3nc(C)c(-c4ccnc(Cl)c4Cl)nc3CO)CC1)C2` [Compound 48], more than 1000 nM; as for `Cc1cnc2c(c1)[C@H](N)C1(CCN(c3nc(C)c(-c4ccnc(Cl)c4Cl)nc3CO)CC1)C2` [Compound 50], 453 nM.
As for `Cc1cnc2c(c1)[C@@H](N)C1(CCN(c3nc(C)c(-c4ccncc4Cl)nc3CO)CC1)C2` [Compound 51], the figure is 81 nM; as for `Cc1cnc2c(c1)[C@H](N)C1(CCN(c3nc(C)c(-c4ccncc4Cl)nc3CO)CC1)C2` [Compound 52], more than 1000 nM.
`COc1ccc(-c2nc(CO)c(N3CCC4(CC3)Cc3ccccc3[C@H]4N)nc2C)c(Cl)c1Cl` [Compound 53] yielded an IC50 of 328 nM. This lies in the sub-micromolar range.
As for `Cc1nc(N2CCC3(CC2)Cc2ccccc2[C@H]3N)c(CO)nc1-c1cc(N)nc(C)c1Cl` [Compound 54], the figure is 83 nM.

The values above are taken from patent US12209074B2, “SHP2 phosphatase allosteric inhibitor” (BEIJING SHENOGEN PHARMA GROUP LTD., priority 2019, dated 2025).
